Source: PubChem BioAssay (NCI)
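Five compound concentrations were applied to cells in 96-well plates for 48 hours; endpoints were derived by simple linear interpolation of the resulting dose-response curve. The concentration for 50% growth inhibition is given as GI50. TGI is the concentration that stops growth completely.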

Key:
Assay in all cases: NCI tumour cell line growth inhibition, 48 h; in the data active means GI50 below about 0.43 µM; inactive means the rest
OVCAR-3 ovarian = system: OVCAR-3 ovarian
SF-268 CNS = system: SF-268 CNS
HCT-15 colon = system: HCT-15 colon
NCI-H522 lung = system: NCI-H522 lung
UO-31 renal = system: UO-31 renal
T-47D breast = system: T-47D breast
RXF 393 renal = system: RXF 393 renal
MDA-MB-231 breast = system: MDA-MB-231 breast
U251 CNS = system: U251 CNS
HCT-116 colon = system: HCT-116 colon
SK-MEL-2 melanoma = system: SK-MEL-2 melanoma
NCI/ADR-RES ovarian = system: NCI/ADR-RES ovarian
DU-145 prostate = system: DU-145 prostate
K-562 leukemia = system: K-562 leukemia
PC-3 prostate = system: PC-3 prostate
HT29 colon = system: HT29 colon
SK-MEL-5 melanoma = system: SK-MEL-5 melanoma
EKVX NSCLC = system: EKVX NSCLC
HCC-2998 colon = system: HCC-2998 colon
BT-549 breast = system: BT-549 breast
COLO 205 colon = system: COLO 205 colon
TK-10 renal = system: TK-10 renal
UACC-62 melanoma = system: UACC-62 melanoma
SR leukemia = system: SR leukemia
SF-295 CNS = system: SF-295 CNS
SNB-19 CNS = system: SNB-19 CNS
MDA-MB-435 = system: MDA-MB-435
RPMI-8226 leukemia = system: RPMI-8226 leukemia
NCI-H23 lung = system: NCI-H23 lung
KM12 colon = system: KM12 colon
CCRF-CEM leukemia = system: CCRF-CEM leukemia
SF-539 CNS = system: SF-539 CNS
UACC-257 melanoma = system: UACC-257 melanoma
SK-MEL-28 melanoma = system: SK-MEL-28 melanoma
SN12C renal = system: SN12C renal
ACHN renal = system: ACHN renal
OVCAR-4 ovarian = system: OVCAR-4 ovarian
HL-60(TB) leukemia = system: HL-60(TB) leukemia
MOLT-4 leukemia = system: MOLT-4 leukemia
HOP-92 NSCLC = system: HOP-92 NSCLC
LOX IMVI melanoma = system: LOX IMVI melanoma
SK-OV-3 ovarian = system: SK-OV-3 ovarian
MCF7 breast = system: MCF7 breast
OVCAR-8 ovarian = system: OVCAR-8 ovarian
SW-620 colon = system: SW-620 colon
HOP-62 NSCLC = system: HOP-62 NSCLC
NCI-H226 lung = system: NCI-H226 lung
CAKI-1 renal = system: CAKI-1 renal
SNB-75 CNS = system: SNB-75 CNS
NCI-H460 lung = system: NCI-H460 lung
A549 NSCLC = system: A549 NSCLC
786-0 renal = system: 786-0 renal
M14 melanoma = system: M14 melanoma

O=C(O)c1cc(-c2ccc(-c3ccc(-c4cc(C(=O)O)c5cc(Cl)ccc5n4)cc3)cc2)nc2ccc(Cl)cc12
inactive: GI50 (OVCAR-3 ovarian) 48.8 µM | GI50 (SF-268 CNS) 94.7 µM | GI50 (HCT-15 colon) 67.2 µM | GI50 (NCI-H522 lung) 79.8 µM | GI50 (UO-31 renal) 32.5 µM | GI50 (T-47D breast) 50.9 µM | GI50 (RXF 393 renal) 77.9 µM | GI50 (MDA-MB-231 breast) 46.5 µM | GI50 (U251 CNS) 40.9 µM | GI50 (HCT-116 colon) 52.4 µM | GI50 (SK-MEL-2 melanoma) 56 µM

BrCCCc1n(Cc2ccc3ccccc3c2)c2ccccc2[n+]1Cc1ccc2ccccc2c1
> 81.3 µM: TGI (NCI/ADR-RES ovarian)
4.25 µM: TGI (DU-145 prostate)
inactive: GI50 (NCI/ADR-RES ovarian) 8.47 µM | GI50 (DU-145 prostate) 1.58 µM

O=C(OCC1OC(OC(=O)c2cc(O)c(O)c(OC(=O)c3cc(O)c(O)c(O)c3)c2)C(OC(=O)c2cc(O)c(O)c(OC(=O)c3cc(O)c(O)c(O)c3)c2)C(OC(=O)c2cc(O)c(O)c(OC(=O)c3cc(O)c(O)c(O)c3)c2)C1OC(=O)c1cc(O)c(O)c(OC(=O)c2cc(O)c(O)c(O)c2)c1)c1cc(O)c(O)c(OC(=O)c2cc(O)c(O)c(O)c2)c1 (stereo unspecified)
47.5 µM: TGI (CAKI-1 renal)
31.2 µM: TGI (OVCAR-3 ovarian)
29.8 µM: TGI (SN12C renal)
30.5 µM: TGI (MDA-MB-435)
34.7 µM: TGI (MCF7 breast)
31.3 µM: TGI (SF-268 CNS)
27.1 µM: TGI (KM12 colon)
36 µM: TGI (NCI-H460 lung)
46 µM: TGI (HCC-2998 colon)
28.2 µM: TGI (TK-10 renal)
29.7 µM: TGI (NCI-H522 lung)
> 50 µM: TGI (K-562 leukemia) | TGI (PC-3 prostate) | TGI (NCI/ADR-RES ovarian) | TGI (DU-145 prostate) | TGI (HCT-15 colon) | TGI (HT29 colon) | TGI (EKVX NSCLC) | TGI (COLO 205 colon) | TGI (UACC-62 melanoma) | TGI (SR leukemia) | TGI (SNB-19 CNS) | TGI (RPMI-8226 leukemia) | TGI (NCI-H23 lung) | TGI (CCRF-CEM leukemia) | TGI (UACC-257 melanoma) | TGI (SK-MEL-28 melanoma) | TGI (UO-31 renal) | TGI (T-47D breast) | TGI (OVCAR-4 ovarian) | TGI (HL-60(TB) leukemia) | TGI (RXF 393 renal) | TGI (MOLT-4 leukemia) | TGI (HOP-92 NSCLC) | TGI (U251 CNS) | TGI (HCT-116 colon) | TGI (SK-OV-3 ovarian) | TGI (SK-MEL-2 melanoma) | TGI (OVCAR-8 ovarian) | TGI (SW-620 colon) | TGI (HOP-62 NSCLC) | TGI (NCI-H226 lung) | TGI (SNB-75 CNS) | TGI (A549 NSCLC) | TGI (786-0 renal) | TGI (M14 melanoma)
22.9 µM: TGI (SF-295 CNS)
36.7 µM: TGI (MDA-MB-231 breast)
25.4 µM: TGI (LOX IMVI melanoma)
35.1 µM: TGI (SF-539 CNS)
32.8 µM: TGI (ACHN renal)
27.9 µM: TGI (SK-MEL-5 melanoma)
inactive: GI50 (K-562 leukemia) 25.3 µM | GI50 (PC-3 prostate) 10.1 µM | GI50 (NCI/ADR-RES ovarian) 19.2 µM | GI50 (OVCAR-3 ovarian) 9.99 µM | GI50 (SF-268 CNS) 7.21 µM | GI50 (DU-145 prostate) 14.8 µM | GI50 (HCT-15 colon) 9.73 µM | GI50 (HT29 colon) 26.4 µM | GI50 (SK-MEL-5 melanoma) 10 µM | GI50 (EKVX NSCLC) 13.5 µM | GI50 (NCI-H522 lung) 8.71 µM | GI50 (HCC-2998 colon) 11.2 µM | GI50 (BT-549 breast) 12.1 µM | GI50 (COLO 205 colon) 14.5 µM | GI50 (TK-10 renal) 7.46 µM | GI50 (UACC-62 melanoma) 14.3 µM | GI50 (SR leukemia) 21 µM | GI50 (SF-295 CNS) 8.65 µM | GI50 (SNB-19 CNS) 24.7 µM | GI50 (MDA-MB-435) 10.9 µM | GI50 (RPMI-8226 leukemia) 20.8 µM | GI50 (NCI-H23 lung) 18.9 µM | GI50 (KM12 colon) 7.23 µM | GI50 (CCRF-CEM leukemia) 18.2 µM | GI50 (SF-539 CNS) 11.7 µM | GI50 (UACC-257 melanoma) 20.9 µM | GI50 (SK-MEL-28 melanoma) > 50 µM | GI50 (SN12C renal) 11.4 µM | GI50 (ACHN renal) 12.3 µM | GI50 (UO-31 renal) 17.4 µM | GI50 (T-47D breast) 13 µM | GI50 (OVCAR-4 ovarian) 35.2 µM | GI50 (HL-60(TB) leukemia) 29.4 µM | GI50 (RXF 393 renal) 30.3 µM | GI50 (MOLT-4 leukemia) 41.3 µM | GI50 (HOP-92 NSCLC) 43.9 µM | GI50 (LOX IMVI melanoma) 10 µM | GI50 (MDA-MB-231 breast) 9.85 µM | GI50 (U251 CNS) 14.6 µM | GI50 (HCT-116 colon) 21.9 µM | GI50 (SK-OV-3 ovarian) 17.3 µM | GI50 (MCF7 breast) 13.2 µM | GI50 (SK-MEL-2 melanoma) 20.6 µM | GI50 (OVCAR-8 ovarian) 25.6 µM | GI50 (SW-620 colon) 21.6 µM | GI50 (HOP-62 NSCLC) > 50 µM | GI50 (NCI-H226 lung) 16.6 µM | GI50 (CAKI-1 renal) 9.63 µM | GI50 (SNB-75 CNS) 38.8 µM | GI50 (NCI-H460 lung) 4.14 µM | GI50 (A549 NSCLC) 20.7 µM | GI50 (786-0 renal) 46.9 µM | GI50 (M14 melanoma) 25.3 µM
35.9 µM: TGI (BT-549 breast)
